Tested on: Plasmodium falciparum
Assay: Antiplasmodial activity against ring-stage chloroquine-resistant Plasmodium falciparum Dd2 assessed as reduction in parasite viability after 72 hrs by SYBR Green I dye-based assay
Assay type: functional, organism-based
Conditions: Dd2, 72 h

Structure (SMILES)	IC50
COc1cc2c(c(O)c1C)C(=O)C[C@@H](c1cc(O)c(OC)c(O)c1)O2	> 10 µM
COc1c(O)ccc(/C=C/c2cc(O)cc(O)c2)c1CC=C(C)C	5.8 µM
COc1c(O)cc([C@@H]2CC(=O)c3c(O)c(C)c(O)c(C)c3O2)cc1O	> 10 µM
COc1c(O)cc([C@@H]2CC(=O)c3c(O)cc(O)c(CC=C(C)C)c3O2)cc1O	5.2 µM
CC(C)(O)CCc1c(O)cc(O)c2c1O[C@H](c1ccc(O)cc1)CC2=O	3.4 µM
COc1c(O)cc([C@@H]2CC(=O)c3c(O)c(C)c(OC)c(C)c3O2)cc1O	> 10 µM
CC(C)=CCc1c(O)cc(O)c2c1O[C@H](c1ccc(O)cc1)CC2=O	6.7 µM
C[C@@H]1CC[C@H]2[C@@H](C)C(=O)O[C@@H]3O[C@@]4(C)CC[C@@H]1[C@]32OO4 [ARTEMISININ]	0.012 µM

Source: ChEMBL document CHEMBL4261592, “Antiplasmodial flavanones and a stilbene from Carpha glomerata” (Bioorg Med Chem Lett, 2018)
